{"source": "patent US4962111A", "about": "(priority 1989, dated 1990)", "key": {"[1]": {"test_system": "Mycobacterium tuberculosis", "assay": "microbe, parasite or virus in culture", "assay_type": "cell-based", "settings": "99% (2 log) inhibition"}, "Mycobacterium kansasii": {"test_system": "Mycobacterium kansasii", "assay": "microbe, parasite or virus in culture", "assay_type": "cell-based", "settings": "99% (2 log) inhibition"}, "[2]": {"test_system": "BCG (Bacillus Calmette-Guerin, an attenuated Mycobacterium bovis)", "assay": "microbe, parasite or virus in culture", "assay_type": "cell-based", "settings": "Mycobacterium tuberculosis variant bovis BCG, pH 5.8, pH 5.8"}, "[3]": {"test_system": "Mycobacterium tuberculosis H37RV", "settings": "cited from earlier work"}, "[4]": {"test_system": "Mycobacterium tuberculosis", "settings": "background statement; cited from earlier work"}, "[5]": {"settings": "background statement; cited from earlier work"}, "other mycobacteria": {"test_system": "other mycobacteria", "settings": "background statement; cited from earlier work"}, "M. bovis": {"test_system": "M. bovis", "settings": "cited from earlier work"}, "tuberculosis": {"test_system": "tuberculosis", "settings": "applied subcutaneously; cited from earlier work"}, "[6]": {"settings": "Mycobacterium tuberculosis, pH 5.8, M. tb. BUR, read-out: MIC"}, "[7]": {"settings": "Mycobacterium tuberculosis, pH 5.8, M. tb. CES, read-out: MIC"}, "[8]": {"settings": "Mycobacterium tuberculosis, pH 5.8, M. tb. DOL, read-out: MIC"}, "[9]": {"settings": "Mycobacterium tuberculosis, pH 5.8, M. tb. DOU, read-out: MIC"}, "[10]": {"settings": "Mycobacterium tuberculosis, pH 5.8, M. tb. DUB, read-out: MIC"}, "[11]": {"settings": "Mycobacterium tuberculosis, pH 5.8, M. tb. GLA, read-out: MIC"}, "[12]": {"settings": "Mycobacterium tuberculosis, pH 5.8, M. tb. ING, read-out: MIC"}, "[13]": {"settings": "Mycobacterium tuberculosis, pH 5.8, M. tb. LFL, read-out: MIC"}, "[14]": {"settings": "Mycobacterium tuberculosis, pH 5.8, M. tb. MCQ, read-out: MIC"}, "[15]": {"settings": "Mycobacterium tuberculosis, pH 5.8, M. tb. SMA, read-out: MIC"}, "[16]": {"settings": "Mycobacterium tuberculosis, pH 5.8, M. tb. WOO, read-out: MIC"}, "[17]": {"settings": "Mycobacterium tuberculosis, pH 5.8, M. tb. BAK, read-out: MIC"}}, "note": "Like-named read-outs stand apart in the source and are kept apart here.", "data": [{"compound": "C=CCOC(=O)c1cnccn1", "note": "[Allyl Pyrazinoate]", "values": [{"measurement": "MIC", "setting": "[1]; M. tb. BAK, pH 5.8", "result": 3.12, "unit": "µg/mL"}, {"measurement": "MIC", "setting": "[1]; [6]", "result": 6.25, "unit": "µg/mL"}, {"measurement": "MIC", "setting": "[1]; [7]", "result": "≤ 3.12", "unit": "µg/mL"}, {"measurement": "MIC", "setting": "[1]; [8]", "result": "≤ 3.12", "unit": "µg/mL"}, {"measurement": "MIC", "setting": "[1]; [9]", "result": 3.12, "unit": "µg/mL"}, {"measurement": "MIC", "setting": "[1]; [10]", "result": 6.25, "unit": "µg/mL"}, {"measurement": "MIC", "setting": "[1]; [11]", "result": 6.25, "unit": "µg/mL"}, {"measurement": "MIC", "setting": "[1]; [12]", "result": 3.12, "unit": "µg/mL"}, {"measurement": "MIC", "setting": "[1]; [13]", "result": 3.12, "unit": "µg/mL"}, {"measurement": "MIC", "setting": "[1]; [14]", "result": "≤ 3.12", "unit": "µg/mL"}, {"measurement": "MIC", "setting": "[1]; [15]", "result": 3.12, "unit": "µg/mL"}, {"measurement": "MIC", "setting": "[1]; [16]", "result": 6.25, "unit": "µg/mL"}, {"measurement": "MIC", "setting": "Mycobacterium kansasii; pH 5.8, M. kans. SCH", "result": 6.25, "unit": "µg/mL"}, {"measurement": "MIC", "setting": "Mycobacterium kansasii; pH 5.8, M. kans. SWK", "result": 6.25, "unit": "µg/mL"}, {"measurement": "MIC", "setting": "[2]", "result": 100, "unit": "µg/mL"}]}, {"compound": "CN(C)CCOC(=O)c1cnccn1", "note": "[N,N-dimethyl-2-aminoethyl pyrazinoate]", "values": [{"measurement": "in vitro activity against Mycobacterium tuberculosis H37RV", "setting": "[3]", "result": "active"}]}, {"compound": "CCCOC(=O)c1cnccn1", "note": "[n-Propyl Pyrazinoate]", "values": [{"measurement": "MIC", "setting": "[1]; [17]", "result": "≤ 3.12", "unit": "µg/mL"}, {"measurement": "MIC", "setting": "[1]; [6]", "result": "≤ 3.12", "unit": "µg/mL"}, {"measurement": "MIC", "setting": "[1]; [7]", "result": "≤ 3.12", "unit": "µg/mL"}, {"measurement": "MIC", "setting": "[1]; [8]", "result": "≤ 3.12", "unit": "µg/mL"}, {"measurement": "MIC", "setting": "[1]; [9]", "result": "≤ 3.12", "unit": "µg/mL"}, {"measurement": "MIC", "setting": "[1]; [10]", "result": "≤ 3.12", "unit": "µg/mL"}, {"measurement": "MIC", "setting": "[1]; [11]", "result": 6.25, "unit": "µg/mL"}, {"measurement": "MIC", "setting": "[1]; [12]", "result": "≤ 3.12", "unit": "µg/mL"}, {"measurement": "MIC", "setting": "[1]; [13]", "result": 6.25, "unit": "µg/mL"}, {"measurement": "MIC", "setting": "[1]; [14]", "result": "≤ 3.12", "unit": "µg/mL"}, {"measurement": "MIC", "setting": "[1]; [15]", "result": "≤ 3.12", "unit": "µg/mL"}, {"measurement": "MIC", "setting": "Mycobacterium kansasii; pH 5.8, M. kans. SCH", "result": 12.5, "unit": "µg/mL"}, {"measurement": "MIC", "setting": "Mycobacterium kansasii; pH 5.8, M. kans. SWK", "result": 6.25, "unit": "µg/mL"}, {"measurement": "MIC", "setting": "[2]", "result": "> 200", "unit": "µg/mL"}]}, {"compound": "Cc1ccc(OC(=O)c2cnccn2)cc1", "note": "[p-Tolyl Pyrazinoate]", "values": [{"measurement": "MIC", "setting": "[1]; M. tb. DOU, pH 5.8", "result": 25, "unit": "µg/mL"}, {"measurement": "MIC", "setting": "[1]; [17]", "result": 12.5, "unit": "µg/mL"}, {"measurement": "MIC", "setting": "[1]; [6]", "result": 12.5, "unit": "µg/mL"}, {"measurement": "MIC", "setting": "[1]; [7]", "result": 12.5, "unit": "µg/mL"}, {"measurement": "MIC", "setting": "[1]; [8]", "result": 6.25, "unit": "µg/mL"}, {"measurement": "MIC", "setting": "[1]; [10]", "result": 25, "unit": "µg/mL"}, {"measurement": "MIC", "setting": "[1]; [11]", "result": 6.25, "unit": "µg/mL"}, {"measurement": "MIC", "setting": "[1]; [12]", "result": 25, "unit": "µg/mL"}, {"measurement": "MIC", "setting": "[1]; [13]", "result": 12.5, "unit": "µg/mL"}, {"measurement": "MIC", "setting": "[1]; [14]", "result": 6.25, "unit": "µg/mL"}, {"measurement": "MIC", "setting": "[1]; [15]", "result": 25, "unit": "µg/mL"}, {"measurement": "MIC", "setting": "[1]; [16]", "result": 25, "unit": "µg/mL"}, {"measurement": "MIC", "setting": "Mycobacterium kansasii; pH 5.8, M. kans. SCH", "result": 12.5, "unit": "µg/mL"}, {"measurement": "MIC", "setting": "Mycobacterium kansasii; pH 5.8, M. kans. SWK", "result": 12.5, "unit": "µg/mL"}, {"measurement": "MIC", "setting": "[2]", "result": 25, "unit": "µg/mL"}]}, {"compound": "NC(=O)c1cnccn1", "note": "[pyrazinamide]", "values": [{"measurement": "activity against M. tuberculosis", "setting": "[4]", "result": "only active against Mycobacterium (M.) tuberculosis"}, {"measurement": "hepatotoxicity", "setting": "[5]", "result": "hepatotoxicity"}, {"measurement": "activity against other mycobacteria", "setting": "other mycobacteria", "result": "not active"}, {"measurement": "activity against M. bovis", "setting": "M. bovis", "result": "not active"}, {"measurement": "MIC", "setting": "[2]", "result": "> 200", "unit": "µg/mL"}]}, {"compound": "O=C(OCC(F)(F)F)c1cnccn1", "note": "[β, β, β-Trifluoroethyl Pyrazinoate]", "values": [{"measurement": "MIC", "setting": "[1]; [17]", "result": 25, "unit": "µg/mL"}, {"measurement": "MIC", "setting": "[1]; [6]", "result": 25, "unit": "µg/mL"}, {"measurement": "MIC", "setting": "[1]; [7]", "result": 12.5, "unit": "µg/mL"}, {"measurement": "MIC", "setting": "[1]; [8]", "result": 25, "unit": "µg/mL"}, {"measurement": "MIC", "setting": "[1]; [9]", "result": 100, "unit": "µg/mL"}, {"measurement": "MIC", "setting": "[1]; [10]", "result": 25, "unit": "µg/mL"}, {"measurement": "MIC", "setting": "[1]; [11]", "result": 12.5, "unit": "µg/mL"}, {"measurement": "MIC", "setting": "[1]; [12]", "result": 25, "unit": "µg/mL"}, {"measurement": "MIC", "setting": "[1]; [13]", "result": 50, "unit": "µg/mL"}, {"measurement": "MIC", "setting": "[1]; [14]", "result": 25, "unit": "µg/mL"}, {"measurement": "MIC", "setting": "[1]; [15]", "result": 25, "unit": "µg/mL"}, {"measurement": "MIC", "setting": "[1]; [16]", "result": 25, "unit": "µg/mL"}, {"measurement": "MIC", "setting": "Mycobacterium kansasii; pH 5.8, M. kans. SCH", "result": 100, "unit": "µg/mL"}, {"measurement": "MIC", "setting": "Mycobacterium kansasii; pH 5.8, M. kans. SWK", "result": 200, "unit": "µg/mL"}, {"measurement": "MIC", "setting": "[2]", "result": 200, "unit": "µg/mL"}]}, {"compound": "Isopropyl thiopyrazinoate", "values": [{"measurement": "activity in a standardized mouse test", "setting": "tuberculosis", "result": "exhibited activity"}]}]}
